On the set-up of data set [1]: species or system CD-1 mice. The conditions noted are these: mouse, in vivo, iv.
Details of data set [2]: species or system CD-1 mice. The conditions noted are these: mouse, in vivo; for Blood to Brain Influx Ki: iv.
On the set-up of data set [3]: species or system CD-1 mice. The conditions noted are these: mouse, in vivo, iv. This is another data set of the same source.
On the set-up of data set [4]: species or system CD-1 mice. The following applies: mouse, in vivo, iv. The source holds these as a separate data set.
A short description of data set [5]: Saturability of brain uptake. The conditions noted are these: mouse, in vivo, iv. The arrangement: species or system CD-1 mice.
Data set [6] is classed as physicochemical. The following applies: pH 7.5.
On the set-up of data set [7]: species or system CD-1 mice. The conditions noted are these: mouse, in vivo, iv. This is another data set of the same source.
For data set [8] the following is noted: in vivo; cited from earlier work.

The values below come from PMC7606641 (Biochemical pharmacology, 2020).

Marks after values point to notes of the source that are not given here.

As for “HAEGTFTSDVSSYLEGQAAK^aEFIAWLVRGRG-OH [Liraglutide]”, in data set [1], the “125I-IRA remaining intact, Serum, 10 min” value is given as 101.2 ± 0.062%; the “125I-IRA remaining intact, Serum, 60 min” value is on record as 100.18 ± 0.244^a %; the “125I-IRA remaining intact, Whole Brain, 10 min” value was determined as 100.1 ± 4.206%; the “Degradation (loss of precipitable 125I-IRA) in serum from 10 to 60 min” value was “less than 2%”. Besides, in data set [1], the “Degradation (loss of precipitable 125I-IRA) in whole brain from 10 to 60 min” value is “less than 12%”. In data set [2], the “Initial Volume of Distribution in Brain Vi” value (“Initial Volume” below) turned out to be 2.434 ± 0.5977 µL/g and the “Blood to Brain Influx Ki” value is “ns”. For the same substance, in data set [3], the “Capillary Depletion: %Parenchyma (percent of IRA reaching the brain found in parenchyma vs capillaries)” value was 28.7% and the “Percent of IRA reaching the brain trapped in the capillaries” value is on record as 71.3%. The “Half-Time Serum Clearance t1/2” value in data set [4] is 167.22 min.
Turning to “HXEGTFTSDVSSYLEGQAAK^bEFIAWLVRGRG-OH [Semaglutide]”, in data set [1], the “125I-IRA remaining intact, Serum, 10 min” value was found to be 100.0 ± 0.031%; the “125I-IRA remaining intact, Serum, 60 min” value is given as 98.91 ± 0.029^a %; the “125I-IRA remaining intact, Whole Brain, 10 min” value was 95.55 ± 1.139%; the “Degradation (loss of precipitable 125I-IRA) in serum from 10 to 60 min” value was “less than 2%”. In addition, in data set [1], the “Degradation (loss of precipitable 125I-IRA) in whole brain from 10 to 60 min” value is given as “less than 12%”. In addition, in data set [5], the “Serum radioactivity, Without Unlabeled IRA” value was determined as 692.1 ± 55.27 cpm/μL and the “Whole Brain brain/serum ratio, Without Unlabeled IRA” value was 9.637 ± 0.308 µL/g. In data set [2], the “Initial Volume” value is -0.340 ± 0.3285 µL/g and the “Blood to Brain Influx Ki” value is given as “ns”. Further, in data set [6], the “Lipid Solubility Partition Coefficient” value was determined as 0.0353 ± 0.0016 and the “Log Partition Coefficient (Log P)” value was −1.452 ± 0.0199. Also, in data set [3], the “Capillary Depletion: Capillary (capillary/serum ratio)” value is 0.434 ± 0.056 µL/g and the “Capillary Depletion: Parenchyma (parenchyma/serum ratio)” value was -0.850 ± 0.533 µL/g. For the same substance, the “Half-Time Serum Clearance t1/2” value in data set [4] was found to be 149.31 min.
For the substance “YXEGTFTSDYSIYLDKQAAXEFVC ^*WLLAGGPSSGAPPPSK-NH2 [Peptide 20]”, in data set [1], the “125I-IRA remaining intact, Serum, 10 min” value came to 100.16 ± 0.120%; the “125I-IRA remaining intact, Serum, 60 min” value was 93.80 ± 1.850^a %; the “125I-IRA remaining intact, Whole Brain, 10 min” value is recorded as 99.4 ± 2.070%. Also, in data set [5], the “Serum radioactivity, Without Unlabeled IRA” value is on record as 217.3 ± 7.176 cpm/μL and the “Whole Brain brain/serum ratio, Without Unlabeled IRA” value came out at 9.51 ± 0.421 µL/g. Also, the “Initial Volume” value in data set [2] stood at 0.4075 ± 0.2728 µL/g. Also, in data set [6], the “Lipid Solubility Partition Coefficient” value is recorded as 0.0057 ± 0.0008 and the “Log Partition Coefficient (Log P)” value is −2.249 ± 0.0671. The “Peak percent of injected 125I-IRA taken up per gram brain tissue (%Inj/g)” value (from here on “Peak percent … per gram brain tissue (%Inj/g)”) in data set [7] is listed as 0.05%. Further, in data set [3], the “Capillary Depletion: %Parenchyma (percent of IRA reaching the brain found in parenchyma vs capillaries)” value was determined as 43.6%, the “Capillary Depletion: Capillary (capillary/serum ratio)” value came to 0.796 ± 0.252 µL/g, the “Capillary Depletion: Parenchyma (parenchyma/serum ratio)” value turned out to be 0.615 ± 0.807 µL/g and the “Percent of IRA reaching the brain trapped in the capillaries” value is on record as 56.4%. Further, the “Half-Time Serum Clearance t1/2” value in data set [4] amounted to 43 min.
Take “YXEGTFTSDYSIYLDKQAAXEFVNWLLAGGPSSGAPPPSC-NH2 [Peptide 17]”: in data set [1], the “125I-IRA remaining intact, Serum, 10 min” value is given as 95.77 ± 0.350%; the “125I-IRA remaining intact, Serum, 60 min” value is 81.20 ± 1.960^a %; the “125I-IRA remaining intact, Whole Brain, 10 min” value came out at 78.98 ± 3.930%; the “125I-IRA remaining intact, Whole Brain, 60 min” value is recorded as 52.91 ± 5.030^a %. Also, in data set [5], the “Serum radioactivity, Without Unlabeled IRA” value is 81.33 ± 6.720 cpm/μL and the “Whole Brain brain/serum ratio, Without Unlabeled IRA” value was determined as 11.41 ± 0.528 µL/g. In addition, in data set [2], the “Initial Volume” value came to 1.057 ± 0.1876 µL/g and the “Blood to Brain Influx Ki” value was determined as 0.3489 ± 0.0228 µL/g/min. In addition, in data set [6], the “Lipid Solubility Partition Coefficient” value was determined as 0.0052 ± 0.0049 and the “Log Partition Coefficient (Log P)” value was −2.564 ± 0.5921. In data set [7], the “Peak percent … per gram brain tissue (%Inj/g)” value was found to be 0.15%. In data set [3], the “Capillary Depletion: %Parenchyma (percent of IRA reaching the brain found in parenchyma vs capillaries)” value was determined as 73.2%, the “Capillary Depletion: Capillary (capillary/serum ratio)” value came out at 0.543 ± 0.178 µL/g and the “Capillary Depletion: Parenchyma (parenchyma/serum ratio)” value worked out at 1.482 ± 0.462 µL/g. Besides, the “Half-Time Serum Clearance t1/2” value in data set [4] was found to be 39.61 min.
Take “YXEGTFTSDYSIYLDKQAAXEFVNWLLAGGPSSGAPPPSK-NH2 [DA3-CH]”: in data set [1], the “125I-IRA remaining intact, Serum, 10 min” value is 93.26 ± 1.110%; the “125I-IRA remaining intact, Serum, 60 min” value was 73.65 ± 3.138^a %; the “125I-IRA remaining intact, Whole Brain, 10 min” value is reported as 71.59 ± 12.14%; the “125I-IRA remaining intact, Whole Brain, 60 min” value is recorded as 26.71 ± 17.23^a %. Moreover, in data set [1], the “Degradation (loss of precipitable 125I-IRA) in serum from 10 to 60 min” value was determined as 19.6% and the “Degradation (loss of precipitable 125I-IRA) in whole brain from 10 to 60 min” value is 44.9%. For the same substance, in data set [5], the “Serum radioactivity, Without Unlabeled IRA” value is given as 65.07 ± 6.275 cpm/μL and the “Whole Brain brain/serum ratio, Without Unlabeled IRA” value is 20.86 ± 1.943 µL/g. In addition, in data set [2], the “Initial Volume” value worked out at 2.186 ± 0.5638 µL/g and the “Blood to Brain Influx Ki” value amounted to 0.3922 ± 0.0668 µL/g/min. Also, in data set [6], the “Lipid Solubility Partition Coefficient” value was determined as 0.0048 ± 0.0015 and the “Log Partition Coefficient (Log P)” value was −2.325 ± 0.1318. In data set [7], the “Peak percent … per gram brain tissue (%Inj/g)” value stood at 0.08%. Besides, in data set [3], the “Capillary Depletion: %Parenchyma (percent of IRA reaching the brain found in parenchyma vs capillaries)” value is on record as 86.02%, the “Capillary Depletion: Capillary (capillary/serum ratio)” value is 0.637 ± 0.073 µL/g and the “Capillary Depletion: Parenchyma (parenchyma/serum ratio)” value was determined as 3.918 ± 0.993 µL/g. In addition, the “Half-Time Serum Clearance t1/2” value in data set [4] was 42.57 min.
On to “YXEGTFTSDYSIYLDKQAAXEFVNWLLAGGPSSGAPPPSK-NH2 [Peptide 18]”, for which, in data set [1], the “125I-IRA remaining intact, Serum, 10 min” value is given as 99.85 ± 0.020%; the “125I-IRA remaining intact, Serum, 60 min” value came out at 90.78 ± 4.440%; the “125I-IRA remaining intact, Whole Brain, 10 min” value is 107.8 ± 3.37%. For the same substance, the “Whole Brain brain/serum ratio, Without Unlabeled IRA” value in data set [5] was 7.18 ± 0.202 µL/g. In data set [2], the “Initial Volume” value came out at 0.2034 ± 0.1134 µL/g and the “Blood to Brain Influx Ki” value was “ns”. In data set [6], the “Lipid Solubility Partition Coefficient” value came out at 0.2493 ± 0.0239 and the “Log Partition Coefficient (Log P)” value is listed as −0.604 ± 0.0418. In data set [3], the “Capillary Depletion: Capillary (capillary/serum ratio)” value was 0.764 ± 0.092 µL/g and the “Capillary Depletion: Parenchyma (parenchyma/serum ratio)” value was -0.306 ± 0.219 µL/g. The “Half-Time Serum Clearance t1/2” value in data set [4] is on record as 32.37 min.
With “YXEGTFTSDYSIYLDKQAAXEFVNWLLAGGPSSGAPPPSKKKKKK-NH2 [DA-JC4]”, in data set [1], the “125I-IRA remaining intact, Serum, 10 min” value was 85.66 ± 1.866%; the “125I-IRA remaining intact, Serum, 60 min” value was 63.32 ± 1.987^a %; the “125I-IRA remaining intact, Whole Brain, 10 min” value is recorded as 69.63 ± 16.36%; the “125I-IRA remaining intact, Whole Brain, 60 min” value is on record as 47.99 ± 18.71%. In data set [5], the “Serum radioactivity, Without Unlabeled IRA” value is on record as 29.32 ± 2.014 cpm/μL and the “Whole Brain brain/serum ratio, Without Unlabeled IRA” value was determined as 15.10 ± 1.243 µL/g. In addition, in data set [2], the “Initial Volume” value came out at 2.495 ± 0.8554 µL/g and the “Blood to Brain Influx Ki” value is 0.6680 ± 0.1089 µL/g/min. Also, in data set [6], the “Lipid Solubility Partition Coefficient” value worked out at 0.0030 ± 0.0008 and the “Log Partition Coefficient (Log P)” value is on record as −2.520 ± 0.1184. In data set [7], the “Peak percent … per gram brain tissue (%Inj/g)” value is listed as 0.17%. In data set [3], the “Capillary Depletion: %Parenchyma (percent of IRA reaching the brain found in parenchyma vs capillaries)” value was 89.7%, the “Capillary Depletion: Capillary (capillary/serum ratio)” value is 1.129 ± 0.597 µL/g and the “Capillary Depletion: Parenchyma (parenchyma/serum ratio)” value amounted to 9.855 ± 2.751 µL/g. Also, the “Half-Time Serum Clearance t1/2” value in data set [4] came out at 151.94 min.
For the substance “leptin: hormone crossing the BBB, literature comparison”, in data set [8], the “Percentage of injected dose entering the brain (%Inj/g)” value is reported as 0.171%.
